Experimental data as given in PMC5011342, “A high throughput drug screening assay to identify compounds that promote oligodendrocyte differentiation using acutely dissociated and purified oligodendrocyte precursor cells” (BMC Research Notes, 2016).
Counter-ions that a name gives are not always drawn. Like-named read-outs stand apart in the source and are kept apart here.

Columns and labels:
[1] = test system: expanded OPCs; assay: cells; settings: for viability at 0.1 µM / viability at 1 µM / viability at 10 µM: Rattus norvegicus, 72 h
In short: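 Expanded OPCs seeded at 10,000 cells/well in differentiation media, then exposed to NCC library compounds at 10, 1 and 0.1 µM (quadruplicate, 0.1% DMSO) for three days. Viability read as alamarBlue fluorescence (560/590 nm) after 4 h at 37 °C; tunicamycin 5 ng/ml served as toxicity control.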

[2] = test system: acutely dissociated and purified rat OPCs; assay: Acute OL differentiation assay (MBP expression/cell, immunofluorescent image quantification); assay type: cell-based
In short: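 Oligodendrocyte precursor cells were enriched from P6-P7 Sprague–Dawley rat brains by immunopanning (RAN-2 and GalC depletion, O4 selection), plated at 5000 cells/well in serum-free, mitogen-free differentiation media on PDL/laminin 96-well view plates, centrifuged at 200×g, and pre-incubated 1–2 h before test compounds were added in quadruplicate. On DIV4, cells were fixed, stained for MBP and DAPI, imaged automatically, and MBP expression per cell was quantified.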

[3] = alamarBlue viability of expanded OPCs, compound at 0.1 µM, relative to DMSO control
[4] = alamarBlue viability of expanded OPCs, compound at 1 µM, relative to DMSO control
[5] = alamarBlue viability of expanded OPCs, compound at 10 µM, relative to DMSO control
[6] = Rattus norvegicus, test compound at 2 uM, NCC library screen, sheet "All OLga data", relative to quetiapine, read-out: 2 uM (% Quet)
[7] = Rattus norvegicus, test compound at 10 uM, NCC library screen, sheet "All OLga data", relative to quetiapine, read-out: 10 uM (% Quet)
[8] = read-out: 0.1 µM (% DMSO), alamarBlue viability, NCC library compound at 0.1 µM, sheet "All Tox data"
[9] = read-out: 1 µM (% DMSO), alamarBlue viability, NCC library compound at 1 µM, sheet "All Tox data"
[10] = read-out: 10 µM (% DMSO), alamarBlue viability, NCC library compound at 10 µM, sheet "All Tox data"
[11] = Rattus norvegicus, 0.4 uM test compound, relative to quetiapine, sheet "All OLga data", read-out: OL differentiation, 0.4 uM (% Quet)
[12] = Rattus norvegicus, 2 uM test compound, relative to quetiapine, sheet "All OLga data", read-out: OL differentiation, 2 uM (% Quet)
[13] = read-out: 0.1 µM (% DMSO), alamarBlue viability of expanded OPCs, compound at 0.1 µM, sheet All Tox data
[14] = read-out: 1 µM (% DMSO), alamarBlue viability of expanded OPCs, compound at 1 µM, sheet All Tox data
[15] = read-out: 10 µM (% DMSO), alamarBlue viability of expanded OPCs, compound at 10 µM, sheet All Tox data
[16] = Rattus norvegicus, 0.08 uM test compound, relative to quetiapine, sheet "All OLga data", read-out: OL differentiation, 0.08 uM (% Quet)
[17] = Rattus norvegicus, test compound at 0.4 uM, MBP expression relative to quetiapine, NCC library screen, sheet "All OLga data", read-out: 0.4 uM (% Quet)
[18] = Rattus norvegicus, 10 uM test compound, relative to quetiapine, sheet "All OLga data", read-out: OL differentiation, 10 uM (% Quet)
[19] = Rattus norvegicus, test compound at 2 uM, MBP expression relative to quetiapine, NCC library screen, sheet "All OLga data", read-out: 2 uM (% Quet)
[20] = Rattus norvegicus, test compound at 10 uM, MBP expression relative to quetiapine, NCC library screen, sheet "All OLga data", read-out: 10 uM (% Quet)
[21] = Rattus norvegicus, test compound at 0.4 uM, NCC library screen, sheet "All OLga data", relative to quetiapine, read-out: 0.4 uM (% Quet)

Row | SMILES | viability at 0.1 µM [1, 8] | viability at 1 µM [1, 9] | viability at 10 µM [1, 10] | activation at 2 µM [2, 12] | viability at 0.1 µM [1, 13] | viability at 1 µM [1, 14] | viability at 10 µM [1, 15] | activation at 10 µM [2, 18] | further results
1 | Cc1cccc(Nc2ccccc2C(=O)O)c1C [Mefenamic Acid] | – | – | – | – | – | – | – | – | 0.1 µM (% DMSO) [1, 3]: 92.7 % DMSO; 1 µM (% DMSO) [1, 4]: 91.8 % DMSO; 10 µM (% DMSO) [1, 5]: 83.6 % DMSO; activation at 2 µM [2, 6]: -4%; activation at 10 µM [2, 7]: -22.3%
2 | COc1ccc(CN2CCN(C(c3ccc(F)cc3)c3ccc(F)cc3)CC2)c(OC)c1OC [Lomerizine] | 92.5% | 58.5% | 11% | -3.9% | – | – | – | – | activation at 0.4 µM [2, 11]: 0.09%
3 | CN[C@H]1CC[C@@H](c2ccc(Cl)c(Cl)c2)c2ccccc21 [Sertraline] | – | – | – | – | 74.6% | 24.6% | 11.1% | – | 0.1 µM (% DMSO) [1, 3]: 52.7 % DMSO; 1 µM (% DMSO) [1, 4]: 20.4 % DMSO; 10 µM (% DMSO) [1, 5]: 7.7 % DMSO; activation at 0.08 µM [2, 16]: 0.9%; activation at 0.4 µM [2, 11]: -63.6%; activation at 0.08 µM ([2]; Rattus norvegicus, test compound at 0.08 uM, MBP expression relative to quetiapine, NCC library screen, sheet "All OLga data", read-out: 0.08 uM (% Quet)): -13.2%; activation at 0.4 µM [2, 17]: -134%
4 | Cc1ccnc2c1NC(=O)c1cccnc1N2C1CC1 [Nevirapine] | – | – | – | 0.24% | 93.7% | 90.2% | 93.3% | 15.9% | –
5 | CC[C@H]1OC(=O)[C@H](C)C(=O)[C@H](C)[C@@H](O[C@@H]2O[C@H](C)C[C@H](N(C)C)[C@H]2O)[C@](C)(OC)C[C@@H](C)C(=O)[C@H](C)[C@H]2N(CCCCn3cnc(-c4cccnc4)c3)C(=O)O[C@]12C [Telithromycin] | 98.4% | 105% | 94% | – | – | – | – | – | activation at 2 µM [2, 6]: 17.7%; activation at 10 µM [2, 7]: 10.4%
6 | O=C(c1ccc(F)cc1)C1CCN(CCn2c(=S)[nH]c3ccccc3c2=O)CC1 [Altanserin] | 107% | 94.1% | 56% | -4% | – | – | – | -10% | –
7 | CC(C)C[C@H](NC(=O)[C@@H](O)[C@H](N)Cc1ccccc1)C(=O)O [Ubenimex] | 112% | 112% | 123% | – | – | – | – | – | activation at 2 µM [2, 6]: -3.1%; activation at 10 µM [2, 7]: 9.5%
8 | CC(=O)OCC(=O)[C@@]1(O)CC[C@H]2[C@@H]3CCC4=CC(=O)CC[C@]4(C)[C@H]3C(=O)C[C@@]21C [Cortisone acetate] | – | – | – | – | – | – | – | – | 0.1 µM (% DMSO) [1, 3]: 89.9 % DMSO; 1 µM (% DMSO) [1, 4]: 98.1 % DMSO; 10 µM (% DMSO) [1, 5]: 86.2 % DMSO; activation at 2 µM [2, 19]: 8.6%; activation at 10 µM [2, 20]: 4.1%
9 | CO[C@H]1/C=C/O[C@@]2(C)Oc3c(C)c(O)c4c(O)c(c(/C=N/N5CCN(C6CCCC6)CC5)c(O)c4c3C2=O)NC(=O)/C(C)=C\C=C\[C@H](C)[C@H](O)[C@@H](C)[C@@H](O)[C@@H](C)[C@H](OC(C)=O)[C@@H]1C [Rifapentine] | 94.8% | 73% | 25.3% | -70.1% | – | – | – | – | 0.1 µM (% DMSO) [1, 3]: 89.9 % DMSO; 1 µM (% DMSO) [1, 4]: 78.4 % DMSO; 10 µM (% DMSO) [1, 5]: 40.0 % DMSO; activation at 0.4 µM [2, 11]: -16.7%; activation at 0.4 µM [2, 17]: -18.6%; activation at 2 µM [2, 19]: -118%
10 | COCC1=C(C(=O)OC(C)OC(=O)OC(C)C)N2C(=O)[C@@H](NC(=O)/C(=N\OC)c3csc(N)n3)[C@H]2SC1 (stereo partly drawn) [Cefpodoxime proxetil] | – | – | – | -7.7% | 96.9% | 90.7% | 98% | -20.6% | –
11 | CCCCCCCCCCC[C@@H](C[C@@H]1OC(=O)[C@H]1CCCCCC)OC(=O)[C@H](CC(C)C)NC=O [Orlistat] | – | – | – | -43.8% | 80.3% | 80.1% | 12.5% | – | activation at 0.4 µM [2, 11]: 4.3%
12 | c1ccc2c(c1)Nc1ccccc1S2 [Phenothiazine] | 82.8% | 85.1% | 51.9% | – | – | – | – | – | activation at 0.4 µM [2, 21]: 4%; activation at 2 µM [2, 6]: -12.1%
13 | COc1ccc2nc([S@@+]([O-])Cc3ncc(C)c(OC)c3C)[nH]c2c1 [Esomeprazole] | – | – | – | 12.7% | 85.5% | 90% | 95.3% | -23.8% | –
14 | CC(c1cc2ccccc2s1)N(O)C(N)=O (stereo not drawn) [Zileuton] | – | – | – | -2.6% | 104% | 89.4% | 77.4% | -52.1% | –
15 | O=c1[nH]cnc2c1ncn2[C@H]1CC[C@@H](CO)O1 [2',3'-Dideoxyinosine] | – | – | – | 10% | 88.6% | 88.2% | 86.2% | -0.07% | –
16 | COC(=O)C[C@](O)(CCCC(C)(C)O)C(=O)O[C@@H]1C(OC)=C[C@]23CCCN2CCc2cc4c(cc2[C@H]13)OCO4 [Homoharringtonine] | 10.7% | 9.9% | 9.6% | – | – | – | – | – | activation at 0.08 µM ([2]; Rattus norvegicus, test compound at 0.08 uM, NCC library screen, sheet "All OLga data", relative to quetiapine, read-out: 0.08 uM (% Quet)): -112%; activation at 0.4 µM [2, 21]: -172%
17 | CC(C(O)c1ccc(O)cc1)N1CCC(Cc2ccccc2)CC1 (stereo not drawn) [Ifenprodil, reference compound] | – | – | – | 162% | 93% | 135% | 103% | 154% | EC50 ([2]; Rattus norvegicus, average EC50 for induction of OL differentiation from independent biological replicates, eight concentrations): 400 nM; hit in OL differentiation assay, MRF-TMC ([2]; ● = confirmed hit in this paper's assay): ●
18 | CS(=O)(=O)c1ccc(-c2cc(Br)sc2-c2ccc(F)cc2)cc1 [DuP 697] | 89.6% | 114% | 10.7% | – | – | – | – | – | activation at 0.4 µM [2, 21]: -42.3%; activation at 2 µM [2, 6]: -109%
19 | Cc1c(O)c(=O)ccn1C [Deferiprone] | – | – | – | 6.6% | 91.3% | 90.1% | 84.8% | 37.1% | –
20 | CN1[C@@H]2C[C@@H](OC(=O)[C@H](CO)c3ccccc3)C[C@H]1[C@@H]1O[C@@H]12 [Scopolamine hydrobromide] | – | – | – | – | 81.1% | 90.5% | 88.5% | – | activation at 0.08 µM [2, 16]: 21.6%; activation at 0.4 µM [2, 11]: 10.9%
21 | N[C@@H](C(=O)N[C@@H]1C(=O)N2C(C(=O)O)=C(Cl)CS[C@H]12)c1ccccc1 [Cefaclor] | 90.3% | 94.6% | 106% | – | – | – | – | – | activation at 2 µM [2, 6]: -10.8%; activation at 10 µM [2, 7]: 27.4%
22 | CN1[C@@H](CC(=O)c2ccccc2)CCC[C@H]1C[C@H](O)c1ccccc1 [Lobeline] | 96.9% | 89.9% | 64.3% | -5% | – | – | – | 0.65% | –
23 | CN1CCN(c2nc3cc(C(F)(F)F)ccc3n3cccc23)CC1.O=C(O)/C=C\C(=O)O.O=C(O)/C=C\C(=O)O [CGS-12066B] | – | – | – | – | – | – | – | – | 0.1 µM (% DMSO) ([1]; alamarBlue viability, NCC library compound at 0.1 µM, sheet "All Tox data"): 78.7 % DMSO; 1 µM (% DMSO) ([1]; alamarBlue viability, NCC library compound at 1 µM, sheet "All Tox data"): 44.5 % DMSO; 10 µM (% DMSO) ([1]; alamarBlue viability, NCC library compound at 10 µM, sheet "All Tox data"): 16.9 % DMSO; 0.08 uM (% Quet) ([2]; test compound at 0.08 uM, NCC library screen, sheet "All OLga data", relative to quetiapine): 28.1 % Quet; 0.4 uM (% Quet) ([2]; test compound at 0.4 uM, NCC library screen, sheet "All OLga data", relative to quetiapine): -50.5 % Quet
24 | CC1(C)O[C@@H]2C[C@H]3[C@@H]4CCC5=CC(=O)C=C[C@]5(C)[C@@]4(F)[C@@H](O)C[C@]3(C)[C@]2(C(=O)CO)O1 [Azmacort] | – | – | – | – | – | – | – | – | 0.1 µM (% DMSO) [1, 3]: 95.7 % DMSO; 1 µM (% DMSO) [1, 4]: 95.0 % DMSO; 10 µM (% DMSO) [1, 5]: 69.5 % DMSO; activation at 2 µM [2, 19]: 24.2%; activation at 10 µM [2, 20]: -114%
